The nature of data set [1]: refractive index (Na D-line) (dimensionless). To be noted: 293.15 K; 101.33 kPa; Liquid; Standard Abbe refractometry.
For data set [2] the following is noted: 298.15 K; 101.33 kPa; Liquid; Vibrating tube method.

Results on four molecules are retold here after the NIST ThermoML archive (doi:10.1021/je100704j).

± gives the expanded uncertainty stated by the source.

For the molecule `O` [water], the refractive index in data set [1] is 1.3327 ± 0.0008. Also, the mass density in data set [2] stood at 996.8 ± 0.2 kg/m3.
On to `CC(=O)CC(C)=O` [2,4-pentanedione], for which the refractive index in data set [1] was 1.4489 ± 0.0008. In addition, the mass density in data set [2] amounted to 971.7 ± 0.2 kg/m3.
As to `C1CCCCC1` [cyclohexane], the refractive index in data set [1] came to 1.4259 ± 0.0008. In addition, in data set [2], the mass density amounted to 773.4 ± 0.2 kg/m3.
`CCOC(C)=O` [ethyl acetate]: the refractive index in data set [1] is 1.3701 ± 0.0008. The mass density in data set [2] was 894.6 ± 0.2 kg/m3.
